Data published in ChEMBL document CHEMBL5352421, “Identification of novel piperazine-tethered phthalazines as selective CDK1 inhibitors endowed with in vitro anticancer activity toward the pancreatic cancer” (Eur J Med Chem, 2022).
The source made the active and inactive calls. The calls are words filed in the database; no cut-off is given here.

How the values were obtained:
[1] = Antiproliferative activity against human MDA-PATC53 cells assessed as growth inhibition incubated at 10 uM for 24 hrs by MTT assay relative to control; format: functional; conditions: read-out: GI
[2] = Antiproliferative activity against human PL45 cells assessed as growth inhibition incubated at 10 uM for 24 hrs by MTT assay relative to control; format: functional; conditions: read-out: GI
SK-MEL-1 = assay: Antiproliferative activity against human SK-MEL-1 cells assessed as growth inhibition incubated at 10 uM for 24 hrs by MTT assay relative to control; format: functional; conditions: read-out: GI
A-375 = assay: Antiproliferative activity against human A-375 cells assessed as growth inhibition incubated at 10 uM for 24 hrs by MTT assay relative to control; format: functional; conditions: read-out: GI
G-361 = assay: Antiproliferative activity against human G-361 cells assessed as growth inhibition incubated at 10 uM for 24 hrs by MTT assay relative to control; format: functional; conditions: read-out: GI
MOLT-4 = assay: Antiproliferative activity against human MOLT-4 cells assessed as growth inhibition incubated at 10 uM for 24 hrs by MTT assay relative to control; format: functional; conditions: read-out: GI
KG-1 = assay: Antiproliferative activity against human KG-1 cells assessed as growth inhibition incubated at 10 uM for 24 hrs by MTT assay relative to control; format: functional; conditions: read-out: GI
T84 = assay: Antiproliferative activity against human T84 cells assessed as growth inhibition incubated at 10 uM for 24 hrs by MTT assay relative to control; format: functional; conditions: read-out: GI
HT-29 = assay: Antiproliferative activity against human HT-29 cells assessed as growth inhibition incubated at 10 uM for 24 hrs by MTT assay relative to control; format: functional; conditions: read-out: GI
MCF7 = assay: Antiproliferative activity against human MCF7 cells assessed as growth inhibition incubated at 10 uM for 24 hrs by MTT assay relative to control; format: functional; conditions: read-out: GI
BT-549 = assay: Antiproliferative activity against human BT-549 cells assessed as growth inhibition incubated at 10 uM for 24 hrs by MTT assay relative to control; format: functional; conditions: read-out: GI
[3] = Antiproliferative activity against human MDA-PATC53 cells assessed as growth inhibition incubated for 24 hrs by MTT assay; format: functional, cell-based; conditions: MDA-PATC53, 24 h
[4] = Antiproliferative activity against human PL45 cells assessed as growth inhibition incubated for 24 hrs by MTT assay; format: functional, cell-based; conditions: PL45, 24 h
[5] = target: Cyclin-dependent kinase 1 (Homo sapiens, UniProt P06493); assay: Inhibition of CDK1 (unknown origin) by FRET assay
Chain of Cyclin-dependent kinase 1 (P06493 whole entry): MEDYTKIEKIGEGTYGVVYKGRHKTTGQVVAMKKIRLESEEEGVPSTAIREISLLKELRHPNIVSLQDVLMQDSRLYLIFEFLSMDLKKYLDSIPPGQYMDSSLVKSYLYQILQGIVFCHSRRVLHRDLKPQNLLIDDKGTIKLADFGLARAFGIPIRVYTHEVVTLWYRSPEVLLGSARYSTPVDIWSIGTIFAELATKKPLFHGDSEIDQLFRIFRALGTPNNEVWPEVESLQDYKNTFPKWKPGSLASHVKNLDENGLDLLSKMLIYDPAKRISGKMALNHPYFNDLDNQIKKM

[6] = target: Cyclin-dependent kinase 2 (Homo sapiens, UniProt P24941); assay: Inhibition of CDK2 (unknown origin) by FRET assay
[7] = target: Cyclin-dependent kinase 5 (Homo sapiens, UniProt Q00535); assay: Inhibition of CDK5 (unknown origin) by FRET assay
Chain of Cyclin-dependent kinase 5 (Q00535 whole entry): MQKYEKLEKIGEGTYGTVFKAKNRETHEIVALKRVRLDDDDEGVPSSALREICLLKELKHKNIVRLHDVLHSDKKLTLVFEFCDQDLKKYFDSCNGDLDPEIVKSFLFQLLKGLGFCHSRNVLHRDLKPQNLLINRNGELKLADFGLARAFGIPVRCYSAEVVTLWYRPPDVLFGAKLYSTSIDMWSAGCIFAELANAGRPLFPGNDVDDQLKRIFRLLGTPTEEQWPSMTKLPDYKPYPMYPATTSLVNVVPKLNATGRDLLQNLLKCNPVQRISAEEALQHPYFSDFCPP

[8] = Selectivity index, ratio of IC50 for CDK2 (unknown origin) to CDK1 (unknown origin)
[9] = Selectivity index, ratio of IC50 for CDK5 (unknown origin) to CDK1 (unknown origin)
[10] = target: T1, Tyrosine-protein kinase receptor UFO (Homo sapiens, UniProt P30530); assay: Inhibition of AXL (unknown origin) by FRET assay
T1 sequence (P30530 whole entry): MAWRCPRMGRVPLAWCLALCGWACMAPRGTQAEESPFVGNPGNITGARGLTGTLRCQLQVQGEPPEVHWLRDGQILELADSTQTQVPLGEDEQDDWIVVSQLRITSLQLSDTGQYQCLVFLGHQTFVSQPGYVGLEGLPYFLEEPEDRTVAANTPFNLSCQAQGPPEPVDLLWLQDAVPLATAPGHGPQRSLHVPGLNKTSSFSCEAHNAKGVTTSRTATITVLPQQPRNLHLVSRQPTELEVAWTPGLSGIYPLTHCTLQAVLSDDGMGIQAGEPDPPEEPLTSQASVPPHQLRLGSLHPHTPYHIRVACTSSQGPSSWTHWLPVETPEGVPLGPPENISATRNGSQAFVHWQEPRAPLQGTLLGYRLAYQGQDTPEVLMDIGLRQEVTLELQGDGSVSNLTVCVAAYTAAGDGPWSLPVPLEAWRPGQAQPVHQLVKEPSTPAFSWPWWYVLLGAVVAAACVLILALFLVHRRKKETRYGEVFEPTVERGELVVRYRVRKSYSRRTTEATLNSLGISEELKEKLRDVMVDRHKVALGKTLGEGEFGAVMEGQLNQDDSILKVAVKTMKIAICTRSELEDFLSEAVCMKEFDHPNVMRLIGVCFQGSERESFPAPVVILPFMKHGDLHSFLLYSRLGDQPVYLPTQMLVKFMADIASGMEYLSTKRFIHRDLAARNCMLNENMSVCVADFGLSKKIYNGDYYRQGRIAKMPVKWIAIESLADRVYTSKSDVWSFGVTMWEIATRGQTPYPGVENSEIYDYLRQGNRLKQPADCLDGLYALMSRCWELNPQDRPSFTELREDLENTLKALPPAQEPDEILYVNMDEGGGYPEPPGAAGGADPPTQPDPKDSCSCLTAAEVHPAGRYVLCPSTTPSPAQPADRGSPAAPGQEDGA

[11] = target: Protein-tyrosine kinase 2-beta (Homo sapiens, UniProt Q14289); assay: Inhibition of PTK2B (unknown origin) by FRET assay
Chain of Protein-tyrosine kinase 2-beta (Q14289 whole entry): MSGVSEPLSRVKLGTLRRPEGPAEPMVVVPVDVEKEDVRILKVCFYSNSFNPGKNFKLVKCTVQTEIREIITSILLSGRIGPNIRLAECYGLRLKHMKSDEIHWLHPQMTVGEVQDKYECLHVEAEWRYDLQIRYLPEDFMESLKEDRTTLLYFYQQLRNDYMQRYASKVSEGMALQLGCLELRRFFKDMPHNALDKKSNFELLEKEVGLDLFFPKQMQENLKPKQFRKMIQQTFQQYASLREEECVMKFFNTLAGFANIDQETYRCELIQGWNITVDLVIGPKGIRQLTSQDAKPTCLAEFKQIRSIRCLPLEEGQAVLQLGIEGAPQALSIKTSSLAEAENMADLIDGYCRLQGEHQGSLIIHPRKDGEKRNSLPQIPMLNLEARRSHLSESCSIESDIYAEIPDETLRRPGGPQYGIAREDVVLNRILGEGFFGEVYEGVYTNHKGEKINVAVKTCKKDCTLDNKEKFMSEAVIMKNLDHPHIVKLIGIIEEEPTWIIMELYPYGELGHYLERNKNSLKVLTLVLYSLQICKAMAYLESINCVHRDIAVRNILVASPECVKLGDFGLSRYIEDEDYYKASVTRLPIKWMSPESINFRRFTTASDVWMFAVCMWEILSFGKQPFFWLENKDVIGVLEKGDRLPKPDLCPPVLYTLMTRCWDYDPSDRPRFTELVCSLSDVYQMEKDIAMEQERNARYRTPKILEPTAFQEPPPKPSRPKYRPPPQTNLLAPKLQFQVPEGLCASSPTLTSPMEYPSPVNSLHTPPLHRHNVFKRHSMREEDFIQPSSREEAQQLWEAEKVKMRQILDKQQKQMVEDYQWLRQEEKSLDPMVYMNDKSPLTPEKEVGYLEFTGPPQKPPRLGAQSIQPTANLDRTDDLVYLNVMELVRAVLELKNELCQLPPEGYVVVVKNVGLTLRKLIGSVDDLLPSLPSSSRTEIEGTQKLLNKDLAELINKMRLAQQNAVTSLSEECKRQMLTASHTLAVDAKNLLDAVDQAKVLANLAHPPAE

[12] = target: Fibroblast growth factor receptor (Homo sapiens, UniProt P22607+P11362+P22455+P21802); assay: Inhibition of FGFR (unknown origin) by FRET assay; format: protein assay
[13] = target: Tyrosine-protein kinase JAK1 (Homo sapiens, UniProt P23458); assay: Inhibition of JAK1 (unknown origin) by FRET assay
Chain of Tyrosine-protein kinase JAK1 (P23458 whole entry): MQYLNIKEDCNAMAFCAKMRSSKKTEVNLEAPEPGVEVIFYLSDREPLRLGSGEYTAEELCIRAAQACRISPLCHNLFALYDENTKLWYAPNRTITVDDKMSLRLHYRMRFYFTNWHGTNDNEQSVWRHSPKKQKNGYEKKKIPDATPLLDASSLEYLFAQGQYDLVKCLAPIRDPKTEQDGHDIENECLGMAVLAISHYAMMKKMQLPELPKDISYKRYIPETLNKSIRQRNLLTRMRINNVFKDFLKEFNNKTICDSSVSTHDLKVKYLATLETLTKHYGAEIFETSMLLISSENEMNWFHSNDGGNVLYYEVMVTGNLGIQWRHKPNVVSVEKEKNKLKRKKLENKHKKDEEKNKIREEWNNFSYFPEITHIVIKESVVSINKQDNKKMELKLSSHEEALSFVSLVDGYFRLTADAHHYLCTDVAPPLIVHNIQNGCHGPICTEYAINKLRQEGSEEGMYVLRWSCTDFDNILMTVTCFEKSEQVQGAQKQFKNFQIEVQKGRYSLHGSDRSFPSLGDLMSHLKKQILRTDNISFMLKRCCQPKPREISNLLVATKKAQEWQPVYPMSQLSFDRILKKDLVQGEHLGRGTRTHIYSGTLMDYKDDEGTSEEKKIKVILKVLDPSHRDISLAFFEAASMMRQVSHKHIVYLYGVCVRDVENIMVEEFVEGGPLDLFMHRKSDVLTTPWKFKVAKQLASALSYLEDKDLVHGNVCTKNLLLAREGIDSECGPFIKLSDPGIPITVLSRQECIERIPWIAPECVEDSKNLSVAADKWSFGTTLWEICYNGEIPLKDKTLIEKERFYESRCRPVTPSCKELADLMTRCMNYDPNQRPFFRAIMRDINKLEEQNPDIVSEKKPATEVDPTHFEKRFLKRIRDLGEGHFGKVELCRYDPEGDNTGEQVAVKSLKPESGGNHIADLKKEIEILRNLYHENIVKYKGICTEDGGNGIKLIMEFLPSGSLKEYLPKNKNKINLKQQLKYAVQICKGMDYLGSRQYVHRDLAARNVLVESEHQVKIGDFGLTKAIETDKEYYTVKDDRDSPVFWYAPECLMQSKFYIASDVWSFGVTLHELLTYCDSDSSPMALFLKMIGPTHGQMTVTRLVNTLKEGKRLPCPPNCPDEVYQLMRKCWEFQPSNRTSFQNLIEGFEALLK

[14] = target: Insulin-like growth factor 1 receptor (Homo sapiens, UniProt P08069); assay: Inhibition of IGF1R (unknown origin) by FRET assay
Chain of Insulin-like growth factor 1 receptor (P08069 31-736 limits assumed): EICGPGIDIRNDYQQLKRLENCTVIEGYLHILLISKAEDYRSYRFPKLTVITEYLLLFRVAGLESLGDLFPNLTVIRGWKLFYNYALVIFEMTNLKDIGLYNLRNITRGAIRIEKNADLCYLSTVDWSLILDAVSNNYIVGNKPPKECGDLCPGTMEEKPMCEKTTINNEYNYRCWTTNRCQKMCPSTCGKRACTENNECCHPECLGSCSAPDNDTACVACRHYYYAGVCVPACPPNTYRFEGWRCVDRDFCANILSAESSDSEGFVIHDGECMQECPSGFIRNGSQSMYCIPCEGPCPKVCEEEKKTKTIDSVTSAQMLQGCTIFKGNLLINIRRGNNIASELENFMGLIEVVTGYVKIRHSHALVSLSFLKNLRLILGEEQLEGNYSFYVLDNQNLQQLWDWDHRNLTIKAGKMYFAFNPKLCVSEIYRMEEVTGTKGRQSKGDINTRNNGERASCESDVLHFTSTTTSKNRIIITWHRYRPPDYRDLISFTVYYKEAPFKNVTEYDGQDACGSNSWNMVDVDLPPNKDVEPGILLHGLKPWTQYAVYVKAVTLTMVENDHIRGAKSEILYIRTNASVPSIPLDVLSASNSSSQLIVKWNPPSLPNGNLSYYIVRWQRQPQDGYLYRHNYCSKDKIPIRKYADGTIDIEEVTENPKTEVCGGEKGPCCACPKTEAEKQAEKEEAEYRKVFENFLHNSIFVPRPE
Chain of Insulin-like growth factor 1 receptor (P08069 741-1367 limits assumed): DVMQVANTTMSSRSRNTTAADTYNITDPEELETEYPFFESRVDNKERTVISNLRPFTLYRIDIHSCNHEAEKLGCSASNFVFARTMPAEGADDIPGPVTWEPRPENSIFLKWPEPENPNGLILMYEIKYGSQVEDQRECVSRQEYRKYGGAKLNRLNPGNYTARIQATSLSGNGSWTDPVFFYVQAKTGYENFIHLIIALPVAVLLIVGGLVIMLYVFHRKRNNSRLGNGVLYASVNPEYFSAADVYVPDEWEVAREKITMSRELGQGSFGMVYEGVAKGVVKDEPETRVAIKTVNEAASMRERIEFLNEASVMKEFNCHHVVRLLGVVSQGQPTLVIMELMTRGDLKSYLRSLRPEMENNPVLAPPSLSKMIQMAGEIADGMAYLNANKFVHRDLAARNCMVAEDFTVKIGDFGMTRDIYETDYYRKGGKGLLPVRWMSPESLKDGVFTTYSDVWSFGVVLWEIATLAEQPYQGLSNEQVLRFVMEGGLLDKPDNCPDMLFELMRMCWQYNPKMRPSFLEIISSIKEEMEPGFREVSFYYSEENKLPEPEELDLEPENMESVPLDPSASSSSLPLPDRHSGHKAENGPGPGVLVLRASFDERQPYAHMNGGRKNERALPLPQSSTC

[15] = target: Serine/threonine-protein kinase B-raf (Homo sapiens, UniProt P15056); assay: Inhibition of BRAF (unknown origin) by FRET assay
Chain of Serine/threonine-protein kinase B-raf (P15056 whole entry): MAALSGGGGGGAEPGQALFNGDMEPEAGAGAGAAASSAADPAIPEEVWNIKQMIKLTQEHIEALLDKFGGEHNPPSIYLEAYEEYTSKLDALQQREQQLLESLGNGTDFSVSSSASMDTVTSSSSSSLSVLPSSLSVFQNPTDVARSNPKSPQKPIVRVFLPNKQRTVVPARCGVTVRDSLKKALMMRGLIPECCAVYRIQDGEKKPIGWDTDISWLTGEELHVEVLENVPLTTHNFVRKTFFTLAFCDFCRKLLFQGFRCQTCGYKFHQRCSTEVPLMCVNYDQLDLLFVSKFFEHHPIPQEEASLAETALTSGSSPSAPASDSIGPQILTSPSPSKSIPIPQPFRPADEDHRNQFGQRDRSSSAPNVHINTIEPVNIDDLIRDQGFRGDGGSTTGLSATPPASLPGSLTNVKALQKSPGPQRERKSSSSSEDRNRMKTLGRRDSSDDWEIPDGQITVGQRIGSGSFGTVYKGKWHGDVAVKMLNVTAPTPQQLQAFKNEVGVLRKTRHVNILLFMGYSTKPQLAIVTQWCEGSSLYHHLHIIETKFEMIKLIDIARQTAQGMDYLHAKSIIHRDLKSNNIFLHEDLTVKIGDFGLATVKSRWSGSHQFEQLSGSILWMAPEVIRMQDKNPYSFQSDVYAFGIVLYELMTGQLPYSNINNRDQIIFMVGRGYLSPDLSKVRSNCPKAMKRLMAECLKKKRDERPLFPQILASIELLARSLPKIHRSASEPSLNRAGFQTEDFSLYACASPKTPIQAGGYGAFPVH

MDA-PATC53 [16] = assay: Downregulation of CDK1 expression in human MDA-PATC53 cells incubated at IC50 for 24 hrs by Western blotting analysis; format: functional, cell-based
[17] = Induction of cell cycle arrest in human MDA-PATC53 cells assessed as accumulation of cells at G2/M phase incubated at IC50 for 24 hrs measured by flow cytometric analysis (reference value: 9%); format: functional
MDA-PATC53 [18] = assay: Induction of cell cycle arrest in human MDA-PATC53 cells assessed as accumulation of cells at S phase incubated at IC50 for 24 hrs measured by flow cytometric analysis; format: functional, cell-based

SMILES | inhibition of growth at 10 µM [1] [%] | inhibition of growth at 10 µM [2] [%] | inhibition of growth at 10 µM (SK-MEL-1) [%] | inhibition of growth at 10 µM (A-375) [%] | inhibition of growth at 10 µM (G-361) [%] | inhibition of growth at 10 µM (MOLT-4) [%] | inhibition of growth at 10 µM (KG-1) [%] | inhibition of growth at 10 µM (T84) [%] | inhibition of growth at 10 µM (HT-29) [%] | inhibition of growth at 10 µM (MCF7) [%] | inhibition of growth at 10 µM (BT-549) [%] | IC50 [3] [nM] | IC50 [4] [nM] | IC50 [5] [nM] | IC50 [6] [nM] | IC50 [7] [nM] | Ratio IC50 [8] | Ratio IC50 [9] | IC50 [10] [nM] | IC50 [11] [nM] | also measured
COc1ccc(Cc2nnc(N3CCN(C(=S)Nc4cccc(Cl)c4)CC3)c3ccccc23)cc1 | 97.1 | 93.5 | 84.2 | 86.4 | 92.3 | 89.3 | 74.2 | 88.2 | 85 | 62 | 78 | 730 | 1000 | 42.2 | 189 | 354 | 4.47 | 8.39 | 5650 | 8950 | IC50 [12]: 2538 nM; IC50 [13]: 2420 nM; IC50 [14]: 8550 nM; IC50 [15]: 8140 nM; Activity (MDA-PATC53 [16]): Active; Activity [17]: 14%; Activity (MDA-PATC53 [18]): Active
S=C(Nc1cccc(Cl)c1)N1CCN(c2nnc(Cc3ccccc3)c3ccccc23)CC1 | 96.8 | 95.3 | 85.4 | 76.1 | 88 | 85 | 69.1 | 81.7 | 84.3 | 78.2 | 79.3 | 880 | 1140 | 44.5 | 622 | 135 | 14 | 3.04 | 2490 | 8960 | IC50 [12]: 7620 nM; IC50 [13]: 8540 nM; IC50 [14]: 4290 nM; IC50 [15]: 1160 nM; Activity (MDA-PATC53 [16]): Active; Activity [17]: 16%; Activity (MDA-PATC53 [18]): Active
COc1ccc(Cc2nnc(N3CCN(C(=S)Nc4ccccc4)CC3)c3ccccc23)cc1 | 76.2 | 42.3 | 11.4 | 17 | 4.21 | 28.7 | 13.9 | 7.38 | 16.9 | 14 | 13.2 | 2060 | 13300 | 85 | 524 | 996 | 6.16 | 11.7 | 1170 | 1450 | IC50 [12]: 7953 nM; IC50 [13]: 3550 nM; IC50 [14]: 2430 nM; IC50 [15]: 4730 nM
COc1cccc(NC(=S)N2CCN(c3nnc(Cc4ccccc4)c4ccccc34)CC2)c1 | 76.3 | 66 | 49.3 | 60.1 | 31.2 | 31.2 | 28.5 | 49.7 | 60.2 | 34.2 | 52.1 | 3880 | 5760 | 88.4 | 426 | 705 | 4.82 | 7.98 | 7950 | 4490 | IC50 [12]: 3853 nM; IC50 [13]: 3540 nM; IC50 [14]: 1130 nM; IC50 [15]: 3880 nM
COc1ccc(Cc2nnc(N3CCN(C(=O)Nc4ccc(Cl)c(C(F)(F)F)c4)CC3)c3ccccc23)cc1 | 99 | 97.6 | 74 | 89.2 | 61.4 | 84.1 | 72.3 | 89.6 | 87.4 | 71.4 | 85.5 | 510 | 740 | 36.8 | 305 | 369 | 8.29 | 10 | 5650 | 3630 | IC50 [12]: 4626 nM; IC50 [13]: 5260 nM; IC50 [14]: 5510 nM; IC50 [15]: 2830 nM; Activity (MDA-PATC53 [16]): Active; Activity [17]: 21%; Activity (MDA-PATC53 [18]): Active
